The test system of assay [1] is MV4-11 human acute myeloid leukemia cell with FLT3-ITD mutation. The assay can be described thus: MV4-11 cell proliferation assay (CellTiter 96). Format: cell-based. The conditions noted are these: Homo sapiens, MV4-11, 72 h, MV4-11 cells, 72 hours treatment, CellTiter96; read-out: anti-proliferation activity MV4-11 (FLT3-ITD), IC50 ranking. The method, boiled down:
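Cells seeded at 6500/well in IMDM with 10% heat-inactivated FBS, left overnight at 37 °C, 5% CO2, then exposed to increasing compound concentrations for 72 h. Viability read as absorbance at 490 nm after 2–4 h with CellTiter96 AQueous One reagent.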

In assay [2] the test system is Molm-14 human acute myeloid leukemia cell with FLT3-ITD mutation. The assay can be described thus: Molm-14 cell proliferation assay (CellTiter 96). Format: cell-based. The conditions noted are these: Homo sapiens; Molm-14 cells, 72 hours treatment, CellTiter96; read-out: anti-proliferation activity Molm-14 (FLT3-ITD), IC50 ranking. The method, boiled down:
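Molm-14 (FLT3-ITD AML) cells in RPMI 1640 with 10% heat-inactivated FBS were seeded at 25000 cells/well, incubated overnight at 37° C, 5% CO2, then treated with increasing compound concentrations for 72 hours. Viability was read as absorbance at 490 nm after 2˜4 hours with CellTiter96 AQueous One reagent.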

Assay [3] has as its system THP-1 human acute monocytic leukemia cell with NRAS G12D mutation. Description: THP-1 cell proliferation assay (counter screen). The conditions noted are these: Homo sapiens, THP-1 cells, 72 hours treatment, CellTiter96, read-out: anti-proliferation activity THP-1 NRAS N12D, IC50 ranking. Format: cell-based. The method, boiled down: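 THP-1 cells (NRAS G12D, growth independent of class III RTK signaling) seeded at 5000 cells/well overnight, then exposed to increasing compound concentrations for 72 h at 37° C, 5% CO2. Viability read by CellTiter96 AQueous One reagent (2–4 h) as absorbance at 490 nm.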
(A counterscreen serves to expose hits that act by an unwanted route or on another target.)

The target in another assay is T1, FLT3 kinase (Homo sapiens, UniProt P36888).
T1 construct: purchased SignalChem
T1 sequence (P36888 27-993): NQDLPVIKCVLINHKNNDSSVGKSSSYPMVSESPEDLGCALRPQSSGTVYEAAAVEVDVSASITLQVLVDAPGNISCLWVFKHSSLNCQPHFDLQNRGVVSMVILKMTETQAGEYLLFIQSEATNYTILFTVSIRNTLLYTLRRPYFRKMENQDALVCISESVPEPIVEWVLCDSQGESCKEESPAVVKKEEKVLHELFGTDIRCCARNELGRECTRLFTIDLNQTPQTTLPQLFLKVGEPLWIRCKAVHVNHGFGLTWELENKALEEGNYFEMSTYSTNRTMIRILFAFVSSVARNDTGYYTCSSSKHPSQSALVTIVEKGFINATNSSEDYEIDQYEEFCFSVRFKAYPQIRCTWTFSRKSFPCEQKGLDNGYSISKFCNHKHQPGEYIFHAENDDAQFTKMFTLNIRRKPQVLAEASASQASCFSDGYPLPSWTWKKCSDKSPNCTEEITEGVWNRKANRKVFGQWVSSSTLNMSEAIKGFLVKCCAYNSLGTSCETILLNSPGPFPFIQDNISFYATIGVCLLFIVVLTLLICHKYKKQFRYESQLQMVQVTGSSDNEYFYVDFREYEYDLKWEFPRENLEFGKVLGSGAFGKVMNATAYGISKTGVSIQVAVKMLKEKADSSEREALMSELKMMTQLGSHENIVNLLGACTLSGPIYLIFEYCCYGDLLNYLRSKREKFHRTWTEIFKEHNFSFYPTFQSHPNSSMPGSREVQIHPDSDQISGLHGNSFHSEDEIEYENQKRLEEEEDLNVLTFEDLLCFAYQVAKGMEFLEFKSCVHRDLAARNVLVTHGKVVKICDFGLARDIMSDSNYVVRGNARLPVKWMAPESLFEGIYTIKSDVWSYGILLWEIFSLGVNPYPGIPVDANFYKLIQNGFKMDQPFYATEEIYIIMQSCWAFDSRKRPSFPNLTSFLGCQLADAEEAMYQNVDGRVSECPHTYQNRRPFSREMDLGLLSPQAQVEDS
Description: FLT3 kinase assay (AlphaScreen). The class given is biochemical. To be noted: read-out: Ranking of IC50 values, FLT3. The method, boiled down:
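Recombinant FLT3 (1.5 ng) phosphorylated biotinylated poly(Glu4:Tyr1) with 10 μM ATP in MOPS pH 7.0 buffer containing 10 mM MgCl2, 30 min at 30 °C, stopped with EDTA. Product detected by AlphaScreen; IC50 from duplicate serial dilutions.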
(Alpha assays give light when donor and acceptor beads are brought close together.)

Turning to `Cn1ncc2ccc(-c3n[nH]c4c3Cc3sc(-c5cc(C(=O)N6CCOCC6)ccn5)cc3-4)cc21` [Compound 56, (2-(3-(1-methyl-1H-indazol-6-yl)-1,4-dihydro-thieno[2′,3′:4,5]cyclopenta [1,2-c]pyrazol-6-yl)pyridin-4-yl)(morpholino) methanone], the IC50 in assay [1] was less than 30 nM; in assay [2], 30 to 100 nM; in assay [3], greater than 10000 nM; at FLT3 kinase, 1 to 10 nM.
The corresponding values for `Cn1ncc2ccc(-c3n[nH]c4c3Cc3sc(-c5ccc(CCN6CCOCC6)cc5)cc3-4)cc21` [Compound 22, 4-(4-(3-(1-methyl-1H-indazol-6-yl)-1,4-dihydro-thieno[2′,3′:4,5]cyclopenta [1,2-c]pyrazol-6-yl)phenethyl)morpholine] are less than 30 nM, 30 to 100 nM, greater than 10000 nM and less than 1 nM.
As for `Cn1ncc2ccc(-c3n[nH]c4c3Cc3sc(-c5ccc(CN6CCC(F)(F)C6)cc5)cc3-4)cc21` [Compound 67, 6-(4-((3,3-difluoro-pyrrolidin-1-yl)methyl)phenyl)-3-(1-methyl-1H-indazol-6-yl)-1,4-dihydro-thieno[2′,3′:4,5]cyclopenta [1,2-c]pyrazole], the IC50 in assay [1] was 100 to 300 nM; in assay [2], 100 to 300 nM; in assay [3], greater than 10000 nM; on FLT3 kinase it was 1 to 10 nM.
For `CC1C(=O)N(C)CCN1Cc1ccc(-c2cc3c(s2)Cc2c(-c4ccc5cnn(C)c5c4)n[nH]c2-3)cc1` (stereo not shown) [Compound 65, 1,3-dimethyl-4-(4-(3-(1-methyl-1H-indazol-6-yl)-1,4-dihydrothieno [2′,3′:4,5]cyclopenta [1,2-c]pyrazol-6-yl)benzyl)piperazin-2-one], the IC50 in assay [1] was less than 30 nM; in assay [2] it was less than 30 nM; in assay [3], greater than 10000 nM; on FLT3 kinase it was 1 to 10 nM.
As for `Cn1ncc2ccc(-c3n[nH]c4c3Cc3sc(-c5ccc(C(=O)N6CCOCC6)cc5)cc3-4)cc21` [Compound 21, (4-(3-(1-methyl-1H-indazol-6-yl)-1,4-dihydro-thieno[2′,3′:4,5]cyclopenta [1,2-c]pyrazol-6-yl)phenyl) (morpholino)methanone], the IC50 is less than 30 nM in assay [1], less than 30 nM in assay [2], greater than 10000 nM in assay [3] and less than 1 nM at FLT3 kinase.
Consider `CCC(c1ccc(-c2cc3c(s2)Cc2c(-c4ccc5cnn(C)c5c4)n[nH]c2-3)cc1)N1CCOCC1` (stereo not shown) [Compound 28, 4-(1-(4-(3-(1-methyl-1H-indazol-6-yl)-1,4-dihydro-thieno[2′,3′:4,5]cyclopenta [1,2-c]pyrazol-6-yl)phenyl)propyl)morpholine], for which the IC50 was 30 to 100 nM in assay [1], 30 to 100 nM in assay [2], greater than 10000 nM in assay [3] and 1 to 10 nM at FLT3 kinase.
In the case of `Cc1ccc(-c2cc3c(s2)Cc2c(-c4ccc5cnn(C)c5c4)n[nH]c2-3)cn1` [Compound 11, 3-(1-methyl-1H-indazol-6-yl)-6-(6-methylpyridin-3-yl)-1,4-dihydrothieno [2′,3′:4,5]cyclopenta[1,2-c] pyrazole], the IC50 in assay [1] is less than 30 nM; in assay [2], 30 to 100 nM; in assay [3], greater than 10000 nM; on FLT3 kinase, 1 to 10 nM.
Regarding `CN1CCN(Cc2cccc(-c3cc4c(s3)Cc3c(-c5ccc6cnn(C)c6c5)n[nH]c3-4)c2)CC1` [Compound 14, 3-(1-methyl-1H-indazol-6-yl)-6-(3-((4-methylpiperazin-1-yl)methyl)phenyl)-1,4-dihydrothieno [2′,3′:4,5]cyclopenta[1,2-c] pyrazole], the IC50 in assay [1] was less than 30 nM; in assay [2] it was 30 to 100 nM; in assay [3] it was greater than 10000 nM; on FLT3 kinase it was 1 to 10 nM.
The corresponding values for `Cn1ncc2ccc(-c3n[nH]c4c3Cc3sc(-c5ccc(OCCN6CCOCC6)cc5)cc3-4)cc21` [Compound 69, 4-(2-(4-(3-(1-methyl-1H-indazol-6-yl)-1,4-dihydro-thieno[2′,3′:4,5]cyclopenta [1,2-c]pyrazol-6-yl)phenoxy)ethyl)morpholine] are less than 30 nM, 30 to 100 nM, greater than 10000 nM and less than 1 nM.
The corresponding values for `CN(C)S(=O)(=O)c1ccc(-c2cc3c(s2)Cc2c(-c4ccc5cnn(C)c5c4)n[nH]c2-3)cc1` [Compound 50, N,N-dimethyl-4-(3-(1-methyl-1H-indazol-6-yl)-1,4-dihydrothieno [2′,3′:4,5]cyclopenta [1,2-c]pyrazol-6-yl) benzenesulfonamide] are less than 30 nM, 30 to 100 nM, greater than 10000 nM and less than 1 nM.
Turning to `Cn1ncc2ccc(-c3n[nH]c4c3Cc3sc(C5CCN(C(=O)CN6CCOCC6)CC5)cc3-4)cc21` [Compound 98, 1-(4-(3-(1-methyl-1H-indazol-6-yl)-1,4-dihydro-thieno[2′,3′:4,5]cyclopenta [1,2-c]pyrazol-6-yl)piperidin-1-yl)-2-morpholinoethan-1-one], the IC50 in assay [1] is less than 30 nM; in assay [2] it was less than 30 nM; in assay [3], 300 to 1000 nM; at FLT3 kinase, less than 1 nM.
Take `Cn1ncc2ccc(-c3n[nH]c4c3Cc3sc(N5CCOCC5=O)cc3-4)cc21` [Compound 79, 4-(3-(1-methyl-1H-indazol-6-yl)-1,4-dihydro-thieno[2′,3′:4,5]cyclopenta [1,2-c]pyrazol-6-yl) morpholin-3-one]: the IC50 was less than 30 nM in assay [1], less than 30 nM in assay [2], greater than 10000 nM in assay [3] and less than 1 nM on FLT3 kinase.
As for `Cn1ncc2ccc(-c3n[nH]c4c3Cc3sc(-c5ccc(CN6CCCOCC6)cc5)cc3-4)cc21` [Compound 97, 4-(4-(3-(1-methyl-1H-indazol-6-yl)-1,4-dihydro-thieno[2′,3′:4,5]cyclopenta [1,2-c]pyrazol-6-yl)benzyl)-1,4-oxazepane], the IC50 in assay [1] is less than 30 nM; in assay [2] it was less than 30 nM; in assay [3] it was 1000 to 10000 nM; at FLT3 kinase it was less than 1 nM.
In the case of `Cn1ncc2ccc(-c3n[nH]c4c3Cc3sc(-c5ccc(C(=O)N6CCCCC6)cc5)cc3-4)cc21` [Compound 34, (4-(3-(1-methyl-1H-indazol-6-yl)-1,4-dihydro-thieno[2′,3′:4,5]cyclopenta [1,2-c]pyrazol-6-yl)phenyl)(piperidin-1-yl) methanone], the IC50 in assay [1] is 30 to 100 nM; in assay [2], 30 to 100 nM; in assay [3], greater than 10000 nM; on FLT3 kinase it was 1 to 10 nM.
With `Cn1ncc2ccc(-c3n[nH]c4c3Cc3sc(-c5ccc(S(=O)(=O)N6CCOCC6)cc5)cc3-4)cc21` [Compound 47, 4-((4-(3-(1-methyl-1H-indazol-6-yl)-1,4-dihydro-thieno[2′,3′:4,5]cyclopenta [1,2-c]pyrazol-6-yl)phenyl)sulfonyl) morpholine], the IC50 in assay [1] was less than 30 nM; in assay [2], less than 30 nM; in assay [3] it was greater than 10000 nM; on FLT3 kinase, less than 1 nM.
Turning to `Cn1ncc2ccc(-c3n[nH]c4c3Cc3sc(-c5cncc(C(=O)N6CCOCC6)c5)cc3-4)cc21` [Compound 31, (5-(3-(1-methyl-1H-indazol-6-yl)-1,4-dihydrothieno[2′,3′:4,5]cyclopenta[1,2-c]pyrazol-6-yl)pyridin-3-yl) (morpholino)methanone], the IC50 in assay [1] was less than 30 nM; in assay [2], less than 30 nM; in assay [3] it was 1000 to 10000 nM; at FLT3 kinase it was less than 1 nM.

(Values after patent US12448394B2, “Heterocyclic pyrazole derivatives as type III receptor tyrosine kinase inhibitors” (DEVELOPMENT CENTER FOR BIOTECHNOLOGY, priority 2019, dated 2025).)
